Laboratory results: patent US11566028B2, “Bicyclic heterocycles as FGFR inhibitors” (Incyte Corporation, priority 2019, dated 2023)
Where two headings read alike, the source gives them in different places.

Key:
Format in all cases: biochemical
FGFR2 = FGFR2 (Homo sapiens (Human), UniProt P21802); test: FGFR Enzymatic Assay (FRET peptide phosphorylation), FGFR2
FGFR4 = FGFR4 (Homo sapiens (Human), UniProt P22455); test: FGFR Enzymatic Assay (FRET peptide phosphorylation), FGFR4
[1] = biological target: wild-type un-phosphorylated FGFR3 protein (Homo sapiens (Human), UniProt P22607); test: FGFR Enzymatic Assay (FRET peptide phosphorylation), FGFR3; conditions: pre-incubated for 4 hours
Chain of wild-type un-phosphorylated FGFR3 protein (P22607 23-806): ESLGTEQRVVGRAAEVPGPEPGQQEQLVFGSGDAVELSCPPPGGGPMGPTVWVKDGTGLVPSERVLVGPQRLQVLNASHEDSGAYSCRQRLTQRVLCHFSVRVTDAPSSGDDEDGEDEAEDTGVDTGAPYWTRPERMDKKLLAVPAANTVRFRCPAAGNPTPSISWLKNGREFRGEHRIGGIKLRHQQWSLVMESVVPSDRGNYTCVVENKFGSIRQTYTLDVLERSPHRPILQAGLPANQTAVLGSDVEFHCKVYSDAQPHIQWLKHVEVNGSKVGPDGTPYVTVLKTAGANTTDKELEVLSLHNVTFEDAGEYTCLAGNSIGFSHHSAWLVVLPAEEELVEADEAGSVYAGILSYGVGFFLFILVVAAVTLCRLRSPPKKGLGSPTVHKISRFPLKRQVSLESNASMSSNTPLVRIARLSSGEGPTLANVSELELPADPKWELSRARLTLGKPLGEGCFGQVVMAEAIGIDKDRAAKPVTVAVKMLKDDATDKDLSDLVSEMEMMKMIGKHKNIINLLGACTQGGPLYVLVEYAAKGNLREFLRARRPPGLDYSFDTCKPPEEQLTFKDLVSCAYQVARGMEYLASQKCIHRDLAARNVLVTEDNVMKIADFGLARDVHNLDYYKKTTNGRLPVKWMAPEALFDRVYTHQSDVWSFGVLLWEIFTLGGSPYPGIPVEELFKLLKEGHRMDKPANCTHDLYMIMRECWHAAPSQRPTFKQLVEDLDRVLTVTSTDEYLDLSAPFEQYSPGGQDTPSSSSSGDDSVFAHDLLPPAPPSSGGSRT

FGFR1 = FGFR1 (Homo sapiens (Human), UniProt P11362); test: FGFR Enzymatic Assay (FRET peptide phosphorylation), FGFR1; conditions: pre-incubated for 4 hours
Chain of FGFR1 (P11362 22-822): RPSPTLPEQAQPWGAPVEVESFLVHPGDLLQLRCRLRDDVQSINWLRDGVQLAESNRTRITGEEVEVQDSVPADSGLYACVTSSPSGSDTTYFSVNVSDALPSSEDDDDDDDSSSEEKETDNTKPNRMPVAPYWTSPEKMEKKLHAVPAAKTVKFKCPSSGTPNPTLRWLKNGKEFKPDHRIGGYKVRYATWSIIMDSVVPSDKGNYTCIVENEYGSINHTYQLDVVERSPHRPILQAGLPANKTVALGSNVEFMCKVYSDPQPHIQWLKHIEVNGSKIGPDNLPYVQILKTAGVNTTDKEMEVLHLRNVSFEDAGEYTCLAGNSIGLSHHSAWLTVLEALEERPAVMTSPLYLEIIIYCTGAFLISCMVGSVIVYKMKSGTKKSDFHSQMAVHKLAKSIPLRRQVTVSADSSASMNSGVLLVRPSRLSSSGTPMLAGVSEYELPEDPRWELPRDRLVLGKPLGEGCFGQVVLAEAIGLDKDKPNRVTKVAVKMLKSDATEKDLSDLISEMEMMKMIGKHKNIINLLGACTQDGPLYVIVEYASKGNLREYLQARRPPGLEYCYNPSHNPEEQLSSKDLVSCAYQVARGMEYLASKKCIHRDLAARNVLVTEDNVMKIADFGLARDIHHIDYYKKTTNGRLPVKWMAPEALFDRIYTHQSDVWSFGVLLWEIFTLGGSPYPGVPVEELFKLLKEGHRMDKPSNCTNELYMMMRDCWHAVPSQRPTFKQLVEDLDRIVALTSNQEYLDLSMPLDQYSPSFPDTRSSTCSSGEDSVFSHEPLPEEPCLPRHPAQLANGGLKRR

Chain of FGFR4 (P22455 22-802): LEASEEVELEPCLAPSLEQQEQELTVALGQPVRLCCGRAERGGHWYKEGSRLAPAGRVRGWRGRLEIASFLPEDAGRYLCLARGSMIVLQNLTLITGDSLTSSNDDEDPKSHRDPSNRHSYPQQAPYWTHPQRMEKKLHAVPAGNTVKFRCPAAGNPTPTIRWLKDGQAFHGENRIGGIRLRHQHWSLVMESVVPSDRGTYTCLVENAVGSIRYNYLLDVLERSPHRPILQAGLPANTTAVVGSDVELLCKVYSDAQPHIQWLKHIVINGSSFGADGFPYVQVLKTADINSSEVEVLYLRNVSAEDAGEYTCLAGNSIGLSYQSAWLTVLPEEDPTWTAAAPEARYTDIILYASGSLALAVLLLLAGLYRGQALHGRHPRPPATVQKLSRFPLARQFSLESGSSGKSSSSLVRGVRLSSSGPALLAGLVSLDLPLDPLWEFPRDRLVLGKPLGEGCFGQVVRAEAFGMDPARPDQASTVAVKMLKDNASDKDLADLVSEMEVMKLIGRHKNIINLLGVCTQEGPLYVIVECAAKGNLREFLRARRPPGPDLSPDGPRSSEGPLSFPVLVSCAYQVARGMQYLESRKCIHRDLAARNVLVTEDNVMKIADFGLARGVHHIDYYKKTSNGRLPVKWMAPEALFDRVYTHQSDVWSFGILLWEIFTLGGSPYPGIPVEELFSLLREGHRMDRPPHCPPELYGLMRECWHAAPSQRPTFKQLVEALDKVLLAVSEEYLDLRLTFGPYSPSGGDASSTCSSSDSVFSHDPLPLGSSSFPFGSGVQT
Chain of FGFR2 (P21802 22-821): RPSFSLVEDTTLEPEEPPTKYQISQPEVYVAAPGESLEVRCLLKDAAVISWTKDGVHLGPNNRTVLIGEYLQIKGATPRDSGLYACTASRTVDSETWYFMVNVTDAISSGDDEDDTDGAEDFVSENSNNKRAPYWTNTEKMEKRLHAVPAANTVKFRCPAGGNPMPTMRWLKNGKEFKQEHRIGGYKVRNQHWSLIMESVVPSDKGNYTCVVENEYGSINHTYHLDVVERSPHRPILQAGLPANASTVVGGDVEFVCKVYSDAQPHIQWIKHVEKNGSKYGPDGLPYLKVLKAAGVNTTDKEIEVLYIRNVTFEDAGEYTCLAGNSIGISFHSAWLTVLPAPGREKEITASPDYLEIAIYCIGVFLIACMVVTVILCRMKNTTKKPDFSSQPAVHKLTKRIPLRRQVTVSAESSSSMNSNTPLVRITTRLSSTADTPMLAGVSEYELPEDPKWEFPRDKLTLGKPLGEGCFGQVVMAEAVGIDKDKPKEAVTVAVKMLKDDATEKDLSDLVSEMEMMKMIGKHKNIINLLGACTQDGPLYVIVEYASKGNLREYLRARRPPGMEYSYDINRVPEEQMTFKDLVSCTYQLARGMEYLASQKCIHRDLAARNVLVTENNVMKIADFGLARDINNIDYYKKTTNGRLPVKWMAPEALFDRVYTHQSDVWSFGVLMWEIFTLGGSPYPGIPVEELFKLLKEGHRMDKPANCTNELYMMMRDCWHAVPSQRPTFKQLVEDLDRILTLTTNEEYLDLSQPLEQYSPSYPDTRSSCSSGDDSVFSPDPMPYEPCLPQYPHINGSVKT

IC50 [1]	IC50 (FGFR1)	IC50 (FGFR2; pre-incubated for 4 hours)	IC50 (FGFR4; pre-incubated for 4 hours)	Compound	IC50 (FGFR2)	IC50 (FGFR4)
–	30 to 200 nM	10 to 30 nM	≥ 200 nM	CC(C)NC(=O)c1cncc(-c2cnn3cc(-c4ccn(C)n4)c(N[C@H]4CCOC4)nc23)c1 [Example 62, (S)—N-Isopropyl-5-(6-(1-methyl-1H-pyrazol-3-yl)-5-((tetrahydrofuran-3-yl)amino)pyrazolo[1,5-a]pyrimidin-3-yl)nicotinamide]	–	–
–	30 to 200 nM	< 10 nM	≥ 200 nM	CNC(=O)c1cncc(-c2cnn3cc(-c4cnn(C)c4)c(OC4CCOC4)nc23)c1 (racemic) [Example 3, N-Methyl-5-(6-(1-methyl-1H-pyrazol-4-yl)-5-((tetrahydrofuran-3-yl)oxy)pyrazolo[1,5-a]pyrimidin-3-yl)nicotinamide]	–	–
< 10 nM	30 to 200 nM	< 10 nM	30 to 200 nM	[2H]C([2H])([2H])NC(=O)c1cc(-c2cnn3cc(-c4ccc(CN5C[C@H]6C[C@@H]5CO6)nc4)c(O[C@H]4CCOC4)nc23)c(F)c(C(F)F)c1 [Example 66, 3-(6-(6-(((1R,4R)-2-Oxa-5-azabicyclo[2.2.1]heptan-5-yl)methyl)pyridin-3-yl)-5-(((S)-tetrahydrofuran-3-yl)oxy)pyrazolo[1,5-a]pyrimidin-3-yl)-5-(difluoromethyl)-4-fluoro-N-(methyl-d3)benzamide]	–	–
–	10 to 30 nM	–	≥ 200 nM	CCS(=O)(=O)c1cc(F)c(F)c(-c2cnn3cc(-c4cnn(C)c4)c(N[C@H]4CCOC4)nc23)c1 [Example 45, (S)-3-(5-(Ethylsulfonyl)-2,3-difluorophenyl)-6-(1-methyl-1H-pyrazol-4-yl)-N-(tetrahydrofuran-3-yl)pyrazolo[1,5-a]pyrimidin-5-amine]	–	–
< 10 nM	< 10 nM	< 10 nM	10 to 30 nM	[2H]C([2H])([2H])NC(=O)c1cc(C)c(F)c(-c2cnn3cc(-c4cnn([C@@H]5CCN(C)C[C@H]5F)c4)c(O[C@H]4CCOC4)nc23)c1 [Example 64, 4-Fluoro-3-(6-(1-((3R,4R)-3-fluoro-1-methylpiperidin-4-yl)-1H-pyrazol-4-yl)-5-(((S)-tetrahydrofuran-3-yl)oxy)pyrazolo[1,5-a]pyrimidin-3-yl)-5-methyl-N-(methyl-d3)benzamide]	–	–
< 10 nM	30 to 200 nM	< 10 nM	30 to 200 nM	CNC(=O)c1cc(C)c(F)c(-c2cnn3cc(-c4cnn(C)c4)c(OC4CCOC4)nc23)c1 (racemic) [Example 4, 4-Fluoro-N,3-dimethyl-5-(6-(1-methyl-1H-pyrazol-4-yl)-5-((tetrahydrofuran-3-yl)oxy)pyrazolo[1,5-a]pyrimidin-3-yl)benzamide]	–	–
< 10 nM	30 to 200 nM	< 10 nM	30 to 200 nM	CCNC(=O)c1cncc(-c2cnn3cc(-c4ccn(C)n4)c(N[C@H]4CCOC4)nc23)c1 [Example 61, (S)—N-Ethyl-5-(6-(1-methyl-1H-pyrazol-3-yl)-5-((tetrahydrofuran-3-yl)amino)pyrazolo[1,5-a]pyrimidin-3-yl)nicotinamide]	–	–
< 10 nM	30 to 200 nM	< 10 nM	–	CNC(=O)c1cc(-c2cnn3cc(-c4cccnc4)c(O[C@H]4CCOC4)nc23)c(F)c(C(F)F)c1 [Example 23, (S)-3-(Difluoromethyl)-4-fluoro-N-methyl-5-(6-(pyridin-3-yl)-5-((tetrahydrofuran-3-yl)oxy)pyrazolo[1,5-a]pyrimidin-3-yl)benzamide]	–	–
< 10 nM	< 10 nM	< 10 nM	–	CNC(=O)c1cc(F)c(F)c(-c2cnn3cc(-c4cnn(C5CN(C)C5)c4)c(O[C@H]4CCOC4)nc23)c1 [Example 17, (S)-3,4-Difluoro-N-methyl-5-(6-(1-(1-methylazetidin-3-yl)-1H-pyrazol-4-yl)-5-((tetrahydrofuran-3-yl)oxy)pyrazolo[1,5-a]pyrimidin-3-yl)benzamide]	–	–
< 10 nM	30 to 200 nM	< 10 nM	–	CNC(=O)c1cccc(-c2cnn3cc(-c4cnn(C)c4)c(OC4CCOC4)nc23)c1 (racemic) [Example 1, N-Methyl-3-(6-(1-methyl-1H-pyrazol-4-yl)-5-((tetrahydrofuran-3-yl)oxy)pyrazolo[1,5-a]pyrimidin-3-yl)benzamide]	–	–
–	–	–	30 to 200 nM	[2H]C([2H])([2H])NC(=O)c1cncc(-c2cnn3cc(-c4cnn(C(C)C)c4)c(O[C@H]4CCOC4)nc23)c1 [Example 63, (S)-5-(6-(1-Isopropyl-1H-pyrazol-4-yl)-5-((tetrahydrofuran-3-yl)oxy)pyrazolo[1,5-a]pyrimidin-3-yl)-N-(methyl-d3)nicotinamide]	–	–
< 10 nM	< 10 nM	< 10 nM	–	CNC(=O)c1cc(F)c(F)c(-c2cnn3cc(-c4cnn(Cc5cccnc5)c4)c(N[C@H]4CCOC4)nc23)c1 [Example 52, (S)-3,4-Difluoro-N-methyl-5-(6-(1-(pyridin-3-ylmethyl)-1H-pyrazol-4-yl)-5-((tetrahydrofuran-3-yl)amino)pyrazolo[1,5-a]pyrimidin-3-yl)benzamide]	–	–
< 10 nM	30 to 200 nM	< 10 nM	–	CNC(=O)c1cc(-c2cnn3cc(-c4ccc(C(C)(C)O)nc4)c(O[C@H]4CCOC4)nc23)c(F)c(C(F)F)c1 [Example 25, (S)-3-(Difluoromethyl)-4-fluoro-5-(6-(6-(2-hydroxypropan-2-yl)pyridin-3-yl)-5-((tetrahydrofuran-3-yl)oxy)pyrazolo[1,5-a]pyrimidin-3-yl)-N-methylbenzamide]	–	–
–	10 to 30 nM	< 10 nM	≥ 200 nM	CCS(=O)(=O)c1cc(F)c(F)c(-c2cnn3cc(-c4cnn(C)c4)c(O[C@H]4CCOC4)nc23)c1 [Example 46, (S)-3-(5-(Ethylsulfonyl)-2,3-difluorophenyl)-6-(1-methyl-1H-pyrazol-4-yl)-5-((tetrahydrofuran-3-yl)oxy)pyrazolo[1,5-a]pyrimidine]	–	–

Second part, the compound before the results:

Compound	IC50 [1]	IC50 (FGFR1)	IC50 (FGFR2; pre-incubated for 4 hours)	IC50 (FGFR4; pre-incubated for 4 hours)	IC50 (FGFR2)	IC50 (FGFR4)
CNC(=O)c1cc(C)c(F)c(-c2cnn3cc(-c4cnc(C)o4)c(N[C@H]4CCOC4)nc23)c1 [Example 42, (S)-4-Fluoro-N,3-dimethyl-5-(6-(2-methyloxazol-5-y1)-5-((tetrahydrofuran-3-yl)amino)pyrazolo[1,5-a]pyrimidin-3-yl)benzamide]	< 10 nM	10 to 30 nM	–	–	< 10 nM	30 to 200 nM
CNC(=O)c1cc(F)c(F)c(-c2cnn3cc(-c4cnn(CCN5CCOCC5)c4)c(N[C@H]4CCOC4)nc23)c1 [Example 55, (S)-3,4-Difluoro-N-methy1-5-(6-(1-(2-morpholinoethyl)-1H-pyrazol-4-y1)-5-((tetrahydrofuran-3-yl)amino)pyrazolo[1,5-a]pyrimidin-3-yl)benzamide]	< 10 nM	< 10 nM	–	–	< 10 nM	30 to 200 nM
CNC(=O)c1cc(C)c(F)c(-c2cnn3cc(-c4cnn(CC(C)(C)O)c4)c(N[C@H]4CCOC4)nc23)c1 [Example 40, (S)-4-Fluoro-3-(6-(1-(2-hydroxy-2-methylpropy1)-1H-pyrazol-4-y1)-5-((tetrahydrofuran-3-yl)amino)pyrazolo[1,5-a]pyrimidin-3-y1)-N,5-dimethylbenzamide]	< 10 nM	10 to 30 nM	–	–	< 10 nM	30 to 200 nM
CCn1ccc(-c2cn3ncc(-c4cc(C(=O)NC)cc(C)c4F)c3nc2N[C@H]2CCOC2)n1 [Example 43, (S)-3-(6-(1-Ethy1-1H-pyrazol-3-y1)-5-((tetrahydrofuran-3-yl)amino)pyrazolo[1,5-a]pyrimidin-3-y1)-4-fluoro-N,5-dimethylbenzamide]	< 10 nM	10 to 30 nM	–	–	< 10 nM	30 to 200 nM
CNC(=O)c1cncc(-c2cnn3cc(-c4ccc(N5CCN(C)CC5)nc4)c(O[C@H]4CCOC4)nc23)c1 [Example 19, (S)-N-Methyl-5-(6-(6-(4-methylpiperazin-1-yl)pyridin-3-yl)-5-((tetrahydrofuran-3-yl)oxy)pyrazolo[1,5-a]pyrimidin-3-yl)nicotinamide]	< 10 nM	30 to 200 nM	< 10 nM	–	–	–
CNC(=O)c1cncc(-c2cnn3cc(-c4ccc(N5CCN(C)CC5)cc4)c(O[C@H]4CCOC4)nc23)c1 [Example 18, (S)—N-Methyl-5-(6-(4-(4-methylpiperazin-1-yl)phenyl)-5-((tetrahydrofuran-3-yl)oxy)pyrazolo[1,5-a]pyrimidin-3-yl)nicotinamide]	< 10 nM	30 to 200 nM	< 10 nM	–	–	–
CNC(=O)c1cc(C)c(F)c(-c2cnn3cc(-c4cnn(CC(=O)N(C)C)c4)c(N[C@H]4CCOC4)nc23)c1 [Example 39, (S)-3-(6-(1-(2-(Dimethylamino)-2-oxoethyl)-1H-pyrazol-4-y1)-5-((tetrahydrofuran-3-yl)amino)pyrazolo[1,5-a]pyrimidin-3-y1)-4-fluoro-N,5-dimethylbenzamide]	< 10 nM	10 to 30 nM	–	–	< 10 nM	–
CNC(=O)c1cc(F)c(F)c(-c2cnn3cc(-c4ccc(C(C)(C)O)nc4)c(N[C@H]4CCOC4)nc23)c1 [Example 57, (S)-3,4-Difluoro-5-(6-(6-(2-hydroxypropan-2-yl)pyridin-3-y1)-5-((tetrahydrofuran-3-yl)amino)pyrazolo[1,5-a]pyrimidin-3-y1)-N-methylbenzamide]	< 10 nM	30 to 200 nM	–	–	< 10 nM	–
CNC(=O)c1cc(C)c(F)c(-c2cnn3cc(-c4cnn(CCC#N)c4)c(N[C@H]4CCOC4)nc23)c1 [Example 37, (S)-3-(6-(1-(2-Cyanoethyl)-1H-pyrazol-4-y1)-5-((tetrahydrofuran-3-yl)amino)pyrazolo[1,5-a]pyrimidin-3-y1)-4-fluoro-N,5-dimethylbenzamide]	< 10 nM	10 to 30 nM	–	–	< 10 nM	–
CNC(=O)c1cc(F)c(F)c(-c2cnn3cc(-c4ccn(C(C)C)c(=O)c4)c(N[C@H]4CCOC4)nc23)c1 [Example 56, (S)-3,4-Difluoro-5-(6-(1-isopropyl-2-oxo-1,2-dihydropyridin-4-y1)-5-((tetrahydrofuran-3-yl)amino)pyrazolo[1,5-a]pyrimidin-3-y1)-N-methylbenzamide]	< 10 nM	10 to 30 nM	–	–	< 10 nM	–
